Reference: the supplement of paper PMC8633005

Columns and labels:
Assay in all cases: drug sensitivity score (DSS) (DSS (unitless, 0-50 scale)); higher = more sensitive (stronger viability inhibition); extreme values may be limits of the assay
Conditions in all cases: 72 h; culture: 2D
Bowes = tested on: Bowes
Procedure, shortened: (§1)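 Viability was measured by CellTiter-Glo luminescence after 72 h at 37 °C in 384-well plates holding a 527-compound oncology library, with patient-derived melanoma cultures (1000–1500 cells per well) and melanoma cell lines grown in 2D. Every compound was tested at five concentrations spanning a 10,000-fold range. The drug sensitivity score, a modified area under the curve, came from dose-response curves fitted with in-house Breeze software.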

FM-MEL-2 = tested on: FM-MEL-2
Procedure, shortened: as §1

FM-MEL-3 = tested on: FM-MEL-3
Procedure, shortened: as §1

FM-MEL-6 = tested on: FM-MEL-6
Procedure, shortened: as §1

SK-MEL-28 = tested on: SK-MEL-28
Procedure, shortened: as §1

SK-MEL-2 = tested on: SK-MEL-2
Procedure, shortened: as §1

WM165 = tested on: WM165
Procedure, shortened: as §1

WM852 = tested on: WM852
Procedure, shortened: as §1

SMILES | drug sensitivity score (Bowes) | drug sensitivity score (FM-MEL-2) | drug sensitivity score (FM-MEL-3) | drug sensitivity score (FM-MEL-6) | drug sensitivity score (SK-MEL-28) | drug sensitivity score (SK-MEL-2) | drug sensitivity score (WM165) | drug sensitivity score (WM852)
Cc1cc(-c2nc(-c3ccc(OC(F)(F)F)cc3)no2)nn1Cc1ccnc(N2CCN(C3CC3)CC2)c1 [BAY 87-2243] | 12.3 | 0.2 | 6.6 | 0 | 1.6 | 0 | 5.5 | 25.9
COc1ccccc1S(=O)(=O)Nc1ccc2c(c1)CN(C)C(=O)N2 [PFI-1] | 4 | 4.7 | 6 | 4.1 | 2.8 | 0.1 | 6.2 | 0.1
CCCCC(=O)OCC(=O)[C@]1(O)Cc2c(O)c3c(c(O)c2[C@@H](O[C@H]2C[C@H](NC(=O)C(F)(F)F)[C@H](O)[C@H](C)O2)C1)C(=O)c1c(OC)cccc1C3=O [Valrubicin] | 6.4 | 6.8 | 7.2 | 9.2 | 8.3 | 8.5 | 21.5 | 5.1
Cc1c(N)nc([C@H](CC(N)=O)NC[C@H](N)C(N)=O)nc1C(=O)N[C@H](C(=O)N[C@H](C)[C@@H](O)[C@H](C)C(=O)N[C@H](C(=O)NCCc1nc(-c2nc(C(=O)NCCC[S+](C)C)cs2)cs1)[C@@H](C)O)[C@@H](OC1OC(CO)C(O)C(O)C1OC1OC(CO)C(O)C(OC(N)=O)C1O)c1cnc[nH]1 (stereo not given in full) [Bleomycin] | 0.9 | 2.4 | 5 | 2.1 | 1.8 | 0 | 9.4 | 0
O=C(Nc1cc(Oc2cc(F)c(NC(=O)C3(C(=O)Nc4ccc(F)cc4)CC3)cc2F)ccn1)C1CC1 [Altiratinib] | 6.4 | 6.2 | 9 | 7.7 | 0 | 0 | 5 | 6.1
Cn1c(Nc2ccc(C(F)(F)F)cc2)nc2cc(Oc3ccnc(-c4ncc(C(F)(F)F)[nH]4)c3)ccc21 [NVP-RAF265] | 0.1 | 5.5 | 9.2 | 2 | 2.7 | 2.6 | 8.2 | 0
CC(C)(C#N)c1cc(Cn2cncn2)cc(C(C)(C)C#N)c1 [Anastrozole] | 0 | 0 | 0 | 0 | 0 | 0 | 0 | 0
CC(=O)c1cc2c(o1)C(=O)c1ccccc1C2=O [Napabucasin] | 20.5 | 4.2 | 19.6 | 22.1 | 16.8 | 15.7 | 27 | 19.1
Cc1noc2c1-c1ccccc1C(c1ccc(Cl)cc1)=N[C@H]2CC(N)=O [CPI-0610] | 3.8 | 5.2 | 4.8 | 0 | 2.8 | 1 | 6.6 | 0
COCCNCc1ccc(-c2cc3nccc(Oc4ccc(NC(=S)NC(=O)Cc5ccc(F)cc5)cc4F)c3s2)nc1 [Glesatinib] | 0 | 0.4 | 0 | 0 | 0 | 0 | 0 | 0
CC1(C)CNc2cc(NC(=O)c3cccnc3NCc3ccncc3)ccc21 [Motesanib] | 0 | 0 | 0 | 0 | 0 | 0 | 0 | 0
CC(C)Oc1ccc(-c2nn([C@@H](C)c3oc4ccc(F)cc4c(=O)c3-c3cccc(F)c3)c3ncnc(N)c23)cc1F [TGR-1202] | 0.9 | 0.9 | 0 | 0 | 0 | 0 | 0 | 1
Cc1[nH]c2ccccc2c1CCNCc1ccc(/C=C/C(=O)NO)cc1 [Panobinostat] | 10.1 | 16.2 | 14.9 | 12.1 | 12.9 | 16.8 | 19.6 | 9.3
C[C@@H]1CN(C(=O)c2ccc(NC(=O)c3cc(O[C@H](C)c4c(Cl)ccc(F)c4Cl)c(N)nn3)cc2)C[C@H](C)N1 [Ensartinib] | 1.6 | 0.5 | 2.6 | 1.5 | 0 | 0 | 0.7 | 0.4
CNC(=O)CN1CCC(Oc2cc3c(Nc4cccc(Cl)c4F)ncnc3cc2OC)CC1 [Sapitinib] | 0 | 0 | 0 | 0 | 0 | 0 | 0 | 0
CCCC(CCC)C(=O)O [Valproic acid] | 0 | 0.2 | 0.3 | 0 | 0 | 0 | 0 | 0
CC(C)[C@H]1C(=O)N[C@@H](CCCNC(=N)N)C(=O)NCC(=O)N[C@@H](CC(=O)O)C(=O)N[C@H](Cc2ccccc2)C(=O)N1C [Cilengitide] | 0 | 0.7 | 0 | 1 | 2 | 0 | 0 | 2.5
COC[C@H](NC(=O)c1cnc(C)s1)C(=O)N[C@@H](COC)C(=O)N[C@@H](Cc1ccccc1)C(=O)[C@@]1(C)CO1 [Oprozomib] | 20.3 | 9.3 | 20.3 | 19.4 | 17 | 15.2 | 20 | 16.9
CC1CCC(n2c3cnccc3c3cnc(Nc4ccc5c(n4)CCN(C(=O)CO)C5)nc32)CC1 (stereo not given) [AMG-925] | 0 | 0.7 | 0 | 0.7 | 0 | 0 | 0 | 1.8
CCS(=O)(=O)N1CCN(c2ccc(Nc3ncc(C(N)=O)c(NC4CC4)n3)cc2)CC1 [Cerdulatinib] | 0.8 | 0 | 0 | 0.1 | 0 | 0 | 4.6 | 4

SMILES | drug sensitivity score (Bowes) | drug sensitivity score (FM-MEL-2) | drug sensitivity score (FM-MEL-3) | drug sensitivity score (FM-MEL-6) | drug sensitivity score (SK-MEL-28) | drug sensitivity score (SK-MEL-2) | drug sensitivity score (WM165) | drug sensitivity score (WM852)
N.N.[Cl][Pt][Cl] [Cisplatin] | 5.6 | 4.2 | 5.8 | 4.5 | 9.2 | 4.4 | 19.2 | 5.1
Cn1cc(C2=Nc3cc(NC(=O)C(N)C4CCCCC4)cc4c3C2=CNNC4=O)cn1 (stereo not given) | 15.5 | 3.1 | 9.7 | 11.1 | 2.3 | 11 | 13.5 | 12.5
Cc1cnc(Nc2ccc(OCCN3CCCC3)cc2)nc1Nc1cccc(S(=O)(=O)NC(C)(C)C)c1 [Fedratinib] | 10.9 | 3.6 | 6.7 | 3.1 | 3 | 4.5 | 9.1 | 6.8
Cc1cc(Nc2cc(N3CCN(C)CC3)nc(/C=C/c3ccccc3)n2)n[nH]1 [ENMD-2076] | 11.1 | 7.6 | 7.8 | 6.4 | 7.9 | 8.9 | 12.6 | 7.5
CCCN(CCC)C(=O)C1=Cc2ccc(-c3ccc(C(=O)N4CCCC4)cc3)cc2N=C(N)C1 [Motolimod] | 1.6 | 0.5 | 1.1 | 1.3 | 0 | 0 | 0 | 2.8
CC(C)n1nc(-c2ccc3oc(N)nc3c2)c2c(N)ncnc21 [Sapanisertib] | 13.2 | 10.1 | 9 | 11.1 | 10.2 | 7.9 | 11.7 | 8.6
CN(CC(=O)N(Cc1ccc(C2CCCCC2)cc1)c1ccc(C(=O)O)cc1)S(=O)(=O)c1c(F)c(F)c(F)c(F)c1F [SH-4-54] | 7.1 | 5.2 | 8.2 | 5.8 | 5.4 | 5.1 | 16.1 | 6.4
CC(C)(O)CC(=O)NCCn1ccc2ncnc(Nc3ccc(Oc4cccc(C(F)(F)F)c4)c(Cl)c3)c21 [TAK-285] | 1.4 | 0 | 0 | 0 | 0 | 0 | 0 | 0
CC[C@H](NC(=O)[C@H](C)NC)C(=O)N1C[C@@H](O)C[C@H]1Cc1c(-c2[nH]c3cc(F)ccc3c2C[C@@H]2C[C@H](O)CN2C(=O)[C@H](CC)NC(=O)[C@H](C)NC)[nH]c2cc(F)ccc12 [Birinapant] | 0 | 8 | 1.4 | 3 | 0 | 3.9 | 0 | 0
CNC(=O)c1ccc(-c2cnc3ncc(Cc4ccc5ncccc5c4)n3n2)cc1F [Capmatinib] | 0 | 0 | 0 | 0 | 0 | 0 | 0 | 0
C[C@]12C=CC(=O)C=C1CC[C@@H]1[C@@H]2[C@@H](O)C[C@@]2(C)[C@H]1CC[C@]2(O)C(=O)CO [Prednisolone] | 0 | 0.3 | 2.8 | 0 | 0 | 0 | 0 | 0
O=C(Nc1cc(Cl)cc2c1[nH]c1cnccc12)c1cccnc1 [PS-1145] | 0 | 0 | 0.7 | 0 | 0 | 0 | 0 | 1.3
O=C1CN2Cc3c(ccc(Cl)c3Cl)N=C2N1 [Anagrelide] | 9.6 | 0 | 1.8 | 0 | 0 | 0 | 0 | 0
Nc1nc(Nc2ccc3c(c2)CC[C@@H](N2CCCC2)CC3)nn1-c1cc2c(nn1)-c1ccccc1CCC2 [BGB324] | 3.2 | 2.6 | 5 | 5.4 | 6.7 | 5.6 | 5.7 | 6.9
C[C@@H](Oc1cc(-n2cnc3ccc(CN4CCN(C)CC4)cc32)sc1C(N)=O)c1ccccc1C(F)(F)F | 27.9 | 5 | 1.7 | 10 | 8.1 | 10.1 | 25.6 | 22.8
Nc1nc(Cl)nc2c1ncn2[C@H]1C[C@H](O)[C@@H](CO)O1 [Cladribine] | 1.4 | 0 | 2.5 | 4.6 | 0.8 | 0 | 4.3 | 0.1
COCCNCc1ccc(-c2cc3nccc(Oc4ccc(NC(=O)C5(C(=O)Nc6ccc(F)cc6)CC5)cc4F)c3s2)nc1 [Sitravatinib] | 0.6 | 2 | 2.6 | 2.4 | 2.3 | 0 | 2.1 | 1.9
CCN1CCN(c2ccc(Nc3cc(N(C)C(=O)Nc4c(Cl)c(OC)cc(OC)c4Cl)ncn3)cc2)CC1 [Infigratinib] | 0 | 0 | 0 | 0 | 0 | 0 | 0 | 0
CNC(=O)c1ccc(C)c(-n2c(C)cc(OCc3ccc(F)cc3F)c(Br)c2=O)c1 | 0 | 0 | 0 | 0 | 0 | 0 | 0 | 0
C=CC[C@@H]1/C=C(\C)C[C@H](C)C[C@H](OC)[C@H]2O[C@@](O)(C(=O)C(=O)N3CCCC[C@H]3C(=O)O[C@H](/C(C)=C/[C@@H]3CC[C@@H](O)[C@H](OC)C3)[C@H](C)[C@@H](O)CC1=O)[C@H](C)C[C@@H]2OC [Tacrolimus] | 0.6 | 1.9 | 1.3 | 0.1 | 0 | 0 | 0 | 0.1
